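Cells were grown in 96-well plates and exposed to each compound for 48 hours at five concentrations; endpoints were interpolated linearly between bracketing concentrations, or set to the highest concentration if not reached. GI50 = concentration required for 50% inhibition of growth.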 Activity calls are given as the source filed them. No stated cut-off is given here; in the data, active = GI50 up to about 1.1 µM and inactive = higher.
Experiments:
Experiment in all cases: NCI-60 cell line screen, 48 h
KM-20L2 = test system: KM-20L2
SNB-78 = test system: SNB-78
XF498 = test system: XF498
DLD-1 = test system: DLD-1
M19-MEL = test system: M19-MEL
HOP-18 = test system: HOP-18
DMS-273 = test system: DMS-273
DMS-114 = test system: DMS-114
RXF 631 = test system: RXF 631

Measured: GI50

COc1ccc(C[C@@H]2Cc3cc(OC)c(OC)cc3CN2C)cc1
inactive: KM-20L2 > 100 µM | SNB-78 > 100 µM | XF498 53.5 µM | DLD-1 > 100 µM

CCOc1ccc(/N=N/c2ccc3oc(=O)c(/C(C)=N/NC(=O)CC(=O)Nc4cccc(OC)c4)cc3c2)cc1
inactive: KM-20L2 > 31.6 µM | SNB-78 23.6 µM | M19-MEL 23.8 µM | HOP-18 17.1 µM | XF498 17.5 µM | DMS-273 24.8 µM | DLD-1 13.8 µM | DMS-114 14.3 µM

CCOP(=O)(Cc1ccc(CP(=O)(OCC)OCC)n1C)OCC
inactive: KM-20L2 > 100 µM | M19-MEL > 100 µM | HOP-18 75 µM | RXF 631 > 100 µM | DMS-273 > 100 µM | DLD-1 > 100 µM | DMS-114 > 100 µM

O=S(=O)(OI(OI(OS(=O)(=O)C(F)(F)F)c1ccccc1)c1ccccc1)C(F)(F)F
inactive: KM-20L2 71.6 µM | SNB-78 50.6 µM | M19-MEL 40.7 µM | DMS-273 23.7 µM | DLD-1 58.9 µM | DMS-114 5.18 µM

Cc1ccc(C2=CC(=O)c3ccccc3C2=O)n1-c1ccccc1
inactive: KM-20L2 > 100 µM | SNB-78 > 100 µM | M19-MEL > 100 µM | HOP-18 > 100 µM | XF498 48.1 µM | DMS-273 > 100 µM | DLD-1 > 100 µM | DMS-114 24.6 µM

CN(C)c1ccc2c(NCCCCCCNc3ccnc4cc(N(C)C)ccc34)ccnc2c1
inactive: SNB-78 4.79 µM | M19-MEL 13.7 µM | RXF 631 51.4 µM | XF498 2.79 µM | DMS-273 4.03 µM | DLD-1 43.7 µM | DMS-114 6.75 µM

COC(=O)/C(C#N)=C1\CCC(C(=O)OC)N1C (stereo unspecified)
inactive: KM-20L2 > 100 µM | SNB-78 > 100 µM | M19-MEL > 100 µM | RXF 631 > 100 µM | XF498 > 100 µM | DMS-273 > 100 µM | DLD-1 > 100 µM | DMS-114 > 100 µM

CC(/C(=N/NC(=O)C(N)=O)c1c(Cl)ccc(Cl)c1O)C1(O)C(=O)Nc2ccccc21 (stereo unspecified)
inactive: KM-20L2 56.2 µM | SNB-78 > 100 µM | M19-MEL 40.4 µM | HOP-18 34.8 µM | RXF 631 32.1 µM | DMS-273 27.4 µM | DLD-1 35.3 µM | DMS-114 34.4 µM

O=c1c2cc(Br)ccc2nc(-c2ccccc2Cl)n1NCC1(O)OCC(O)C(O)C1O (stereo unspecified)
inactive: KM-20L2 > 100 µM | SNB-78 > 100 µM | M19-MEL > 100 µM | DMS-273 > 100 µM | DMS-114 75.9 µM

COc1c(C(=O)c2ccc([N+](=O)[O-])cc2)cc(C(C)(C)C)cc1C(C)(C)C
inactive: KM-20L2 35.6 µM | SNB-78 46.6 µM | M19-MEL 30.1 µM | HOP-18 > 100 µM | XF498 22.2 µM | DMS-273 30.2 µM | DLD-1 54 µM | DMS-114 22.1 µM

COc1cc2ccn3c4cc(OC)c(OC)cc4cc3c2cc1OC
inactive: KM-20L2 > 100 µM | SNB-78 > 100 µM | M19-MEL > 100 µM | XF498 7.16 µM | DLD-1 > 100 µM | DMS-114 50.6 µM

CCCCC1(C)C=C/C(=C2/C(=O)O/C(=C\C(=O)O)C2=O)O1 (stereo unspecified)
inactive: KM-20L2 > 100 µM | SNB-78 > 100 µM | M19-MEL > 100 µM | HOP-18 > 100 µM | RXF 631 > 100 µM | XF498 > 100 µM | DMS-273 > 100 µM

COc1cc(OC(=O)c2ccccc2)cc2c1C(=O)C=CC2=O
inactive: KM-20L2 > 56.9 µM | SNB-78 20.5 µM | M19-MEL 11 µM | HOP-18 16.6 µM | RXF 631 20 µM | XF498 17.6 µM | DMS-273 21.8 µM | DLD-1 15.4 µM | DMS-114 10.9 µM

O=[N+]([O-])c1cccc(C2ON2C2CCCCC2)c1 (stereo unspecified)
inactive: KM-20L2 22.3 µM | SNB-78 27.4 µM | M19-MEL 19.6 µM | HOP-18 30.8 µM | DMS-273 18.4 µM | DLD-1 12 µM | DMS-114 19.1 µM

CCOC(=O)/C(C#N)=C\C=C1/C=CN=C2NCCN21
inactive: KM-20L2 > 100 µM | SNB-78 > 100 µM | M19-MEL > 100 µM | HOP-18 > 100 µM | XF498 > 100 µM | DMS-273 > 100 µM | DLD-1 > 100 µM | DMS-114 > 100 µM

Cc1cccc(C)c1CO
inactive: KM-20L2 > 100 µM | SNB-78 > 100 µM | M19-MEL > 100 µM | RXF 631 > 100 µM | XF498 > 100 µM | DMS-273 > 100 µM | DLD-1 > 100 µM | DMS-114 > 100 µM

OCc1c[te]c(-c2ccccc2)c1
active: XF498 0.56 µM
inactive: KM-20L2 > 100 µM | SNB-78 > 100 µM | M19-MEL 33.9 µM | RXF 631 55.6 µM | DMS-273 51.4 µM | DLD-1 37.2 µM | DMS-114 26.8 µM

C(=N\Nc1ccccc1)/c1nc2ccccc2nc1/C=N/Nc1ccccc1
inactive: KM-20L2 8.73 µM | SNB-78 20.7 µM | M19-MEL 20.7 µM | RXF 631 13.6 µM | DLD-1 11.3 µM

Cc1cc2c(cc1C)NC(=O)C(NC(=O)/C=C/c1ccccc1)C=N2 (stereo unspecified)
inactive: KM-20L2 45.3 µM | SNB-78 66.7 µM | M19-MEL 33.3 µM | HOP-18 37.5 µM | XF498 28 µM | DMS-273 29 µM | DLD-1 28.2 µM | DMS-114 12.3 µM

COc1cc(C2C(C(=O)Nc3ccccc3)=C(C)NC(C)=C2C(=O)Nc2ccccc2)ccc1O
inactive: KM-20L2 20.1 µM | SNB-78 53.5 µM | M19-MEL 36.2 µM | HOP-18 99.3 µM | XF498 34.2 µM | DLD-1 29.1 µM | DMS-114 42 µM

O=C1C=CC(=O)c2cc(Sc3ccccc3)c(=O)c(Sc3ccccc3)cc21
inactive: KM-20L2 > 100 µM | M19-MEL 48.5 µM | HOP-18 71.8 µM | XF498 86.3 µM | DMS-273 > 100 µM | DLD-1 56.4 µM | DMS-114 22.2 µM

CN(C)c1ccc(-c2cc(O)c3cc4c(cc3n2)OCO4)cc1
inactive: KM-20L2 > 100 µM | M19-MEL > 100 µM | RXF 631 > 100 µM | XF498 > 100 µM | DMS-273 > 100 µM | DLD-1 > 100 µM | DMS-114 > 100 µM

Source: ChEMBL document CHEMBL1201862, “PubChem BioAssay data set” (2004)
